Among the data in PubChem BioAssay AID2495 (Sanford-Burnham Center for Chemical Genomics, 2010) are IC50 values, retold here.

pIC50: −log10 of the molar value.

This assay has as its target Kappa-type opioid receptor (Homo sapiens) (UniProt P41145). The experiment in a line: KOR antagonist analogs, beta-arrestin recruitment, SAR follow-up, cell-based, luminescence, set 2 (AID 2495). Particulars: antagonist mode. A general note: Activated receptors often draw arrestin, which recruitment assays turn into a signal.

As a reminder, the pIC50 is the negative decadic logarithm of the IC50, by convention in mol/L.

Sequence of Kappa-type opioid receptor (Homo sapiens) (P41145 whole entry, looked up): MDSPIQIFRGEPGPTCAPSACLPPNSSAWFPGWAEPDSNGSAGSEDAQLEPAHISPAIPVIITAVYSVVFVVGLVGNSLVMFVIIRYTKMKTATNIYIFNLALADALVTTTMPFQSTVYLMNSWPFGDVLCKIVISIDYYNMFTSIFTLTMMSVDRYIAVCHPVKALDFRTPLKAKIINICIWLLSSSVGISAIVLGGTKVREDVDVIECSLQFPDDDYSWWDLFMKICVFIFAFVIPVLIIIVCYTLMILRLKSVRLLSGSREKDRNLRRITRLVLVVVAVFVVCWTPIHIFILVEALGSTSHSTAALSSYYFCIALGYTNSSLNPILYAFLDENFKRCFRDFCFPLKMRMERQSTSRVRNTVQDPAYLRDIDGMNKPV

Take `CCc1ccc(S(=O)(=O)NCc2ccc(C(=O)NCCN(Cc3ccccc3)C(C)C)cc2)cc1`: the negative-log IC50 (pIC50) was 5.95.
